PubChem BioAssay (NCI)
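These data come from cells grown in 96-well plates and exposed to compound for 48 hours at five concentrations. GI50 = concentration required for 50% inhibition of growth. TGI denotes the concentration required for complete inhibition of growth.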 Where a SMILES comes first, the peptide text is derived from it. [ ]: non-standard residue; d: D form. The star is where a group is joined. ξ: configuration not given here. NMeF = CN[CH](Cc1ccccc1)C(=O)O; ξNMe2Val = CC(C)C(C(=O)*)N(C)C; NMeV = CN[CH](C(=O)O)C(C)C; OtBu = CC(C)(C)O*

What was measured:
Assay in all cases: growth of human tumour cells (NCI), 48 h
[1] = system: 786-0 renal
[2] = system: A498 renal
[3] = system: OVCAR-5 ovarian
[4] = system: SK-MEL-28 melanoma
[5] = system: SNB-75 CNS
[6] = system: TK-10 renal
[7] = system: DU-145 prostate
[8] = system: HT29 colon
[9] = system: MDA-MB-435
[10] = system: NCI/ADR-RES ovarian

SMILES	TGI [1] [µM]	TGI [2] [µM]	TGI [3] [µM]	TGI [4] [µM]	TGI [5] [µM]	TGI [6] [µM]	TGI [7] [µM]	TGI [8] [µM]	TGI [9] [µM]	TGI [10] [µM]	GI50 [5] [µM]	GI50 [6] [µM]	GI50 [8] [µM]	GI50 [3] [µM]	GI50 [4] [µM]
COc1ccc([C@H]2CC3C(=O)N(c4ccc(OC)cc4)C(=O)C3c3[nH]c4ccccc4c32)cc1 (stereo partly specified)	47.7	> 100	> 100	> 100	83.7	> 100									
O=S(=O)(c1ccccc1)c1ccc(-c2nc(-c3ccc4c(c3)Sc3ccccc3S4)cs2)cc1	45.1		> 100		25.3	73.6	> 100	> 100	> 100						
O=S(O)c1cc(Cl)c(O)c(Cl)c1		> 100	> 100	> 100	> 100	> 100		> 100							
COc1cccc(OC)c1NC(=O)C(=O)Nn1c(NNC(=O)c2ccncc2)nc2ccccc2c1=O	> 100	> 100	> 100	> 100	> 100	> 100		> 100	> 100	> 100					
O=C1CN(c2cccc(C(F)(F)F)c2)C(=O)CN1CCN1CC(=O)N(c2cccc(C(F)(F)F)c2)CC1=O	> 100		> 100	> 100	> 100	> 100		> 100	> 100	> 100					
Cn1c(=O)c2[nH]c(SC/C(=N/O)c3ccc(Br)cc3)nc2n(C)c1=O					5.07	3.41					2.04	1.92			
COc1ccc(NC(=O)C(=O)Cc2ccc([N+](=O)[O-])c([N+](=O)[O-])c2CC(=O)C(=O)Nc2ccc(OC)cc2OC)c(OC)c1	> 100	> 100	> 100	> 100	> 100	> 100		> 100							
O=C1CC(c2ccccc2)n2c(nc3ccccc32)N1 (stereo unspecified)	> 100	> 100	> 100			> 100		> 100	> 100	> 100					
CSC(C1c2ccccc2N(C)c2[nH]c(=O)n(C)c(=O)c21)S(=O)(=O)c1ccc(C)cc1 (stereo unspecified)	> 100	> 100	> 100	> 100	> 100	> 100		> 100							
CCN(CC)CCC1CCCCN1CC(=O)N1c2cc(Cl)ccc2NC(=O)CC1C (stereo unspecified)	> 100	> 100	> 100	> 100		> 100	> 100	> 100	> 100						
Cc1nn2c(c1C#N)NNc1c-2sc(=N)nnc1=O	> 100		> 100	> 100		> 100		> 100							
Brc1ccc(-c2cc3c(cc2C2SCCS2)OCO3)cc1	> 100	93.3	> 100	> 100	39.9	> 100		> 100							
O=C1C(=C([O-])c2ccccc2)C(=O)c2ccccc21.O=C1C(=C([O-])c2ccccc2)C(=O)c2ccccc21.[Ni+2]			> 100	> 100	> 100	> 100		> 100			35.2	> 100	77	13.4	62.2
CCO/C(O)=c1/s/c(=C(\C#N)c2nc3ccccc3[nH]2)n(-c2ccccc2)c1=N	> 100	> 100	> 100	> 100	> 100	> 100		> 100							
CC(C)C(C(=O)N(C)C(Cc1ccccc1)C(=O)N(C)C(C(=O)N(C)C(C(=O)N1CCCC1C(=O)OC(C)(C)C)C(C)C)C(C)C)N(C)C (stereo unspecified) (ξNMe2Val-[NMeF][NMeV][NMeV]P-OtBu; configuration not given here)	> 100					> 100		> 100							
COc1ccc(C2=Nc3ccccc3N=C(SC)C2)cc1	> 100	> 100	> 100	> 100	> 100	> 100		> 100							
Cc1ccc(NC(=O)C2C3CCC(O3)C2C(=O)O)cc1 (stereo unspecified)	> 56.1	> 75.7	> 100	> 100	> 100	> 100		> 64.2							
CC(=O)OCC1OC(N=[N+]=[N-])C(OC(C)=O)C(OC(C)=O)C1OC1OC(COC(C)=O)C(OC(C)=O)C(OC(C)=O)C1OC(C)=O (stereo unspecified)	> 100	> 100	> 100	> 100	60.8	> 100		> 100							
O=c1[nH]c2ccc(CC(=S)N3CCOCC3)cc2o1	> 100	> 100	> 100	> 100	> 100	> 100		> 100	> 100	> 100					
O=C1Nc2ccc(Cl)c(I)c2C1=O	36.8		34.1	31.7	50.8	> 100		75.9							
CC#COS(=O)(=O)c1ccc(C)cc1	> 100		> 100			> 100		> 100							
